{"source": "ChEMBL document CHEMBL3853304", "about": "“Synthesis and biological screening for cytotoxic activity of N-substituted indolines and morpholines” (Eur J Med Chem, 2016)", "key": {"[1]": {"assay": "(§1) Cytotoxicity against human U2OS cells assessed as cell death at 100 uM after 24 hrs by trypan blue exclusion assay", "format": "functional"}, "[2]": {"tested_on": "U2OS", "assay": "(§2) Cytotoxicity against human U2OS cells assessed as reduction in cell viability after 24 hrs by trypan blue exclusion assay", "format": "functional, cell-based"}, "[3]": {"tested_on": "U2OS", "assay": "as §1", "format": "functional"}, "[4]": {"tested_on": "U2OS", "assay": "Inhibition of cell migration in human U2OS cells assessed as disturbed monolayer at IC50 measured after 10 hrs by light microscopic analysis", "format": "functional, cell-based"}, "[5]": {"tested_on": "U2OS", "assay": "Induction of apoptosis in human U2OS cells assessed as apoptotic cells at IC50 after 48 hrs by propidium iodide based epifluorescence microscopic analysis (reference value: 2 %)", "format": "functional"}, "[6]": {"tested_on": "U2OS", "assay": "Induction of apoptosis in human U2OS cells at IC50 after 24 hrs by Alexa fluor-Annexin V/DAPI staining-based epifluorescence microscopic analysis", "format": "functional"}, "[7]": {"tested_on": "U2OS", "assay": "Induction of apoptosis in human U2OS cells assessed as apoptotic cells at IC50 after 24 hrs by propidium iodide based epifluorescence microscopic analysis (reference value: 2 %)", "format": "functional"}, "[8]": {"assay": "Induction of apoptosis in HEK293 cells at IC50 after 24 hrs by Alexa fluor-Annexin V/DAPI staining-based epifluorescence microscopic analysis", "format": "cell-based", "settings": "human, hek293, 24 h"}, "[9]": {"assay": "as §2", "format": "functional, cell-based"}, "[10]": {"assay": "Induction of apoptosis in HEK293 cells assessed as increase in intracellular mitochondrial Ca2+ levels at IC50 by ratiometric pericam-mt based fluorescence microscopic analysis", "format": "cell-based", "settings": "human"}, "[11]": {"tested_on": "U2OS", "assay": "Inhibition of cell migration in human U2OS cells at IC50 measured after 10 hrs by scratch migration assay", "format": "functional"}, "[12]": {"tested_on": "U2OS", "assay": "Inhibition of cell migration in human U2OS cells at IC50 measured after 2 hrs by scratch migration assay", "format": "functional"}, "[13]": {"tested_on": "U2OS", "assay": "Inhibition of cell migration in human U2OS cells assessed as detached adherent cells at IC50 measured after 10 hrs by light microscopic analysis", "format": "functional, cell-based"}, "[14]": {"tested_on": "U2OS", "assay": "Induction of apoptosis in human U2OS cells assessed as necrotic cells at IC50 after 48 hrs by propidium iodide based epifluorescence microscopic analysis (reference value: 3 %)", "format": "functional"}, "[15]": {"tested_on": "U2OS", "assay": "Induction of apoptosis in human U2OS cells assessed as necrotic cells at IC50 after 24 hrs by propidium iodide based epifluorescence microscopic analysis (reference value: 3 %)", "format": "functional"}, "[16]": {"tested_on": "U2OS", "assay": "Inhibition of cell migration in human U2OS cells at IC50 after 2 to 10 hrs by scratch migration assay", "format": "functional, cell-based"}, "[17]": {"tested_on": "U2OS", "assay": "Induction of apoptosis in human U2OS cells assessed as increase in intracellular mitochondrial Ca2+ levels at IC50 by ratiometric pericam-mt based fluorescence microscopic analysis", "format": "functional, cell-based"}}, "note": "The source made the active and inactive calls. The calls are words filed in the database; no cut-off is given here.", "data": [{"compound": "Oc1ccccc1C(c1ccc(Cl)cc1)N1CCOCC1", "note": "(stereo unspecified)", "values": [{"measurement": "Activity", "setting": "[1]", "value": 20, "unit": "%"}]}, {"compound": "C=Cc1ccc(C(c2ccccc2O)N2CCOCC2)cc1", "note": "(stereo unspecified)", "values": [{"measurement": "Activity", "setting": "[1]", "value": 20, "unit": "%"}]}, {"compound": "Oc1ccccc1C(c1ccccc1)N1CCc2ccccc21", "note": "(stereo unspecified)", "values": [{"measurement": "Activity", "setting": "[1]", "value": ">90", "unit": "%"}, {"measurement": "Activity", "setting": "[2]", "value": "Active"}]}, {"compound": "COc1ccc(C(c2ccccc2O)N2CCOCC2)cc1", "note": "(stereo unspecified)", "values": [{"measurement": "Activity", "setting": "[1]", "value": 20, "unit": "%"}]}, {"compound": "SODIUM ORTHOVANAD", "values": [{"measurement": "Activity", "setting": "[3]", "value": 30, "unit": "%"}]}, {"compound": "C(=C\\C(c1ccccn1)N1CCOCC1)/c1ccccc1", "note": "(stereo unspecified)", "values": [{"measurement": "Activity", "setting": "[1]", "value": 20, "unit": "%"}]}, {"compound": "Oc1ccccc1C(/C=C/c1ccccc1)N1CCOCC1", "note": "(stereo unspecified)", "values": [{"measurement": "Activity", "setting": "[1]", "value": 20, "unit": "%"}]}, {"compound": "Oc1ccccc1C(c1ccccc1)N1CCOCC1", "note": "(stereo unspecified)", "values": [{"measurement": "Activity", "setting": "[1]", "value": 20, "unit": "%"}]}, {"compound": "Cc1ccc(C(c2cc([N+](=O)[O-])ccc2O)N2CCc3ccccc32)cc1", "note": "(stereo unspecified)", "values": [{"measurement": "Activity", "setting": "[1]", "value": ">90", "unit": "%"}, {"measurement": "inhibition", "setting": "[4]", "value": "Active"}, {"measurement": "Activity", "setting": "[5]", "value": 23, "unit": "%"}, {"measurement": "Activity", "setting": "[6]", "value": 43, "unit": "%"}, {"measurement": "Activity", "setting": "[7]", "value": 17, "unit": "%"}, {"measurement": "Activity", "setting": "[8]", "value": 30, "unit": "%"}, {"measurement": "Activity", "setting": "[2]", "value": "Dose-dependent effect"}, {"measurement": "IC50", "setting": "[9]", "value": 74, "unit": "µM"}, {"measurement": "Activity", "setting": "[10]", "value": "Toxic"}, {"measurement": "inhibition (INH)", "setting": "[11]", "value": 32, "unit": "%"}, {"measurement": "inhibition (INH)", "setting": "[12]", "value": 7, "unit": "%"}, {"measurement": "inhibition", "setting": "[13]", "value": "Active"}, {"measurement": "Activity", "setting": "[14]", "value": 15, "unit": "%"}, {"measurement": "Activity", "setting": "[15]", "value": 12, "unit": "%"}, {"measurement": "inhibition", "setting": "[16]", "value": "Active"}, {"measurement": "Activity", "setting": "[17]", "value": "Active"}]}, {"compound": "Cc1ccc(C(c2ccccc2O)N2CCc3ccccc32)cc1", "note": "(stereo unspecified)", "values": [{"measurement": "Activity", "setting": "[1]", "value": 20, "unit": "%"}]}]}
